Laboratory results from patent US20230200390A1, “SELECTIVE HERBICIDES BASED ON SUBSTITUTED ISOXAZOLIN CARBOXAMIDES AND MEFENPYR-DIETHYL” (BAYER AKTIENGESELLSCHAFT, priority 2020, published 2023).

Columns and labels:
Format in all cases: in vivo
[1] = system: spring barley, HORVS Montoya; assay: Tank-mix; post-emergence: crop damage by herbicide with/without safener mefenpyr-diethyl; conditions: 10 DAT
Method: (§1) Seeds of crops (spring wheat, TRZAS; spring barley, HORVS; maize, ZEAMA) were placed in sandy loam soil in peat pots, covered with soil and cultivated in a greenhouse under good growth conditions. Two to three weeks after sowing, the test plants were treated at the 1 to 3-leaf stage. The herbicide/safener active compound combinations according to the invention, formulated as wettable powders or emulsion concentrates, and, in parallel tests, the correspondingly formulated individual active compounds were sprayed onto the green parts of the plants in various dosages using an amount of water of 300 l/ha (converted).
(§2) The pots were returned under good growing conditions in a glasshouse and a visual assessment of herbicidal effects was made at intervals from 1 to 3 weeks after herbicide application (DAT=days after treatment). Assessment was on a percentage basis in comparison with untreated control plants (0%=no injury, 100%=complete kill).

[2] = system: spring wheat, TRZAS Triso; assay: as above; conditions: 10 DAT
Method: as §1, §2

[3] = system: spring wheat, TRZAS Triso; assay: Seed treatment with safener; post-emergence herbicide, crop damage; conditions: for HER effect + SAF [%] (crop damage) / Reduction [%] / Reduction [Difference]: mefenpyr-diethyl 0.5 g a.i./kg seed; for HER effect [%] (crop damage, herbicide without safener): no safener
From the text: (§3) For safener seed treatment trials, sufficient seed amounts of the respective crops (spring wheat (TRZAS); spring barley (HORVS)) were weighed into screw cap glass bottles with a minimum volume trice of the seeds.
(§4) As a first step, specified safeners formulated as wettable powder (WP) or wettable granules (WG) were weighed out for the required dosages (g a.i./kg seed), corresponding to the seed amounts. The safener amounts were mixed with a coloured slurry blind formulation type, prediluted with milk at 3.5% fat rate (25 mgs slurry formulation plus 2 ml milk per 10 grams of seed). A tube roller was used for coating. The solutions were gradually pipetted each on the rotating seeds followed by coating for min. 3 hours until all liquid had been soaked up by the seeds. Thereafter, the coated seeds were put flat on open trays for drying over night at room temperature.
(§5) Treated seeds were then placed into pots (7 cm diameter) on the surface of sandy loam, pressed down, flat covered with additional soil and finally covered with sandy soil, also pressed down, watered, and kept under good growth conditions in a greenhouse, until the plants had reached 2-leaf-stage (BBCH 12).
(§6) At that stage, post-emergence application of the specified herbicides was done on:
(§7) a) pot sets containing plants with safener-coated seeds as described above,
(§8) b) as a reference, pot sets of plants without seed treatment.
(§9) The herbicides were formulated as wettable powder (WP). Equivalent to the spray area, compound amounts were weighed out and diluted related to the water application rate (300 l/ha) to an aqueous suspension plus additive (1 l/ha MERO). Dosage related equivalents were conventionally sprayed on trays with the potted plants.
(§10) After application, the test plants were kept under good growth conditions in a greenhouse.
(§11) Assessment timings were 10 and 21 days after treatment (DAT) with the herbicide, by visual scoring of the crop damage in % (comparison of untreated with treated plants, either sprayed only with herbicide or with herbicide on plants with treated seeds).

[4] = system: spring barley, HORVS Montoya; assay: as above; conditions: for HER effect + SAF / Reduction [%] / Reduction [Difference]: mefenpyr-diethyl 0.5 g a.i./kg seed
From the text: as §3, §4, §5, §6, §7, §8, §9, §10, §11

[5] = HER 2 g a.i./ha + mefenpyr-diethyl 50 g a.i./ha
[6] = HER 8 g a.i./ha + mefenpyr-diethyl 100 g a.i./ha
[7] = HER 8 g a.i./ha + mefenpyr-diethyl 50 g a.i./ha
[8] = HER 8 g a.i./ha post-emergence, 21 DAT
[9] = HER 32 g a.i./ha post-emergence, 21 DAT
[10] = herbicide alone 32 g a.i./ha post-emergence, 21 DAT
[11] = HER 32 g a.i./ha + mefenpyr-diethyl 100 g a.i./ha
[12] = HER 32 g a.i./ha post-emergence, 10 DAT
[13] = HER 2 g a.i./ha post-emergence, 21 DAT

COCCOC(=O)C1C=CC(NC(=O)C2(C(F)(F)F)CC(c3cc(F)cc(C#N)c3)=NO2)C1 (centres unmarked) [Example 1.2]
HER effect + SAF [1, 5]: 0% | Reduction [%] [1, 5]: 100% | Reduction [Difference] [1, 5]: 20 | HER effect + SAF [1, 6]: 0% | Reduction [%] [1, 6]: 100% | Reduction [Difference] [1, 6]: 30 | HER effect ([1]; herbicide alone 2 g a.i./ha): 20% | HER effect ([1]; herbicide alone 8 g a.i./ha): 30% | HER effect + SAF [2, 7]: 50% | Reduction [%] [2, 7]: 44% | Reduction [Difference] [2, 7]: 40 | HER effect ([2]; herbicide alone 8 g a.i./ha): 90% | HER effect + SAF [%] (crop damage) ([3]; 10 DAT, HER dose 8 g a.i./ha): 10% | Reduction [%] ([3]; 10 DAT, HER dose 8 g a.i./ha): 89% | Reduction [Difference] ([3]; 10 DAT, HER dose 8 g a.i./ha): 80 | HER effect [%] (crop damage, herbicide without safener) ([3]; 10 DAT, HER dose 8 g a.i./ha): 90% | HER effect + SAF [%] (crop damage) ([3]; 10 DAT, HER dose 32 g a.i./ha): 30% | Reduction [%] ([3]; 10 DAT, HER dose 32 g a.i./ha): 67% | Reduction [Difference] ([3]; 10 DAT, HER dose 32 g a.i./ha): 60 | HER effect [%] (crop damage, herbicide without safener) ([3]; 10 DAT, HER dose 32 g a.i./ha): 90%

COC(=O)C1C=CC(NC(=O)C2(C)CC(c3cc(Cl)cc(C#N)c3)=NO2)C1 (mixture of isomers) [Example 1.23]
HER effect + SAF [4, 8]: 0% | Reduction [%] [4, 8]: 100% | Reduction [Difference] [4, 8]: 20 | HER effect + SAF [4, 9]: 10% | Reduction [%] [4, 9]: 67% | Reduction [Difference] [4, 9]: 20 | HER effect ([4]; herbicide alone 8 g a.i./ha post-emergence, 21 DAT): 20% | HER effect [4, 10]: 30% | HER effect + SAF [%] (crop damage) ([3]; 21 DAT, HER dose 8 g a.i./ha): 0% | Reduction [%] ([3]; 21 DAT, HER dose 8 g a.i./ha): 100% | Reduction [Difference] ([3]; 21 DAT, HER dose 8 g a.i./ha): 20 | HER effect [%] (crop damage, herbicide without safener) ([3]; 21 DAT, HER dose 8 g a.i./ha): 20%

COC(=O)C1C=CC(NC(=O)C2(C(F)(F)F)CC(c3cccc(F)c3)=NO2)C1 (centres unmarked) [Example 1.18]
HER effect + SAF [1, 7]: 0% | Reduction [%] [1, 7]: 100% | Reduction [Difference] [1, 7]: 20 | HER effect + SAF [1, 11]: 10% | Reduction [%] [1, 11]: 88% | Reduction [Difference] [1, 11]: 70 | HER effect ([1]; herbicide alone 8 g a.i./ha): 20% | HER effect ([1]; herbicide alone 32 g a.i./ha): 80% | HER effect + SAF [4, 12]: 20% | Reduction [%] [4, 12]: 75% | Reduction [Difference] [4, 12]: 60 | HER effect ([4]; herbicide alone 32 g a.i./ha post-emergence, 10 DAT): 80%

CSCCOC(=O)C1C=CC(NC(=O)C2(C(F)(F)F)CC(c3cc(F)cc(F)c3)=NO2)C1 (centres unmarked) [Example 1.7]
HER effect + SAF [2, 5]: 0% | Reduction [%] [2, 5]: 100% | Reduction [Difference] [2, 5]: 50 | HER effect + SAF [2, 7]: 70% | Reduction [%] [2, 7]: 25% | Reduction [Difference] [2, 7]: 23 | HER effect ([2]; herbicide alone 2 g a.i./ha): 50% | HER effect ([2]; herbicide alone 8 g a.i./ha): 93% | HER effect + SAF [4, 13]: 40% | Reduction [%] [4, 13]: 43% | Reduction [Difference] [4, 13]: 30 | HER effect + SAF [4, 9]: 50% | Reduction [%] [4, 9]: 47% | Reduction [Difference] [4, 9]: 45 | HER effect ([4]; herbicide alone 2 g a.i./ha post-emergence, 21 DAT): 70% | HER effect [4, 10]: 95% | HER effect + SAF [%] (crop damage) ([3]; 10 DAT, HER dose 2 g a.i./ha): 0% | Reduction [%] ([3]; 10 DAT, HER dose 2 g a.i./ha): 100% | Reduction [Difference] ([3]; 10 DAT, HER dose 2 g a.i./ha): 50 | HER effect [%] (crop damage, herbicide without safener) ([3]; 10 DAT, HER dose 2 g a.i./ha): 50% | HER effect + SAF [%] (crop damage) ([3]; 10 DAT, HER dose 8 g a.i./ha): 40% | Reduction [%] ([3]; 10 DAT, HER dose 8 g a.i./ha): 57% | Reduction [Difference] ([3]; 10 DAT, HER dose 8 g a.i./ha): 53 | HER effect [%] (crop damage, herbicide without safener) ([3]; 10 DAT, HER dose 8 g a.i./ha): 93%
